Series [1] deals with murine macrophage (J774) cell line. Put plainly: In vitro cytotoxicity, MTS assay. It counts as cell-based. The settings on record: J774, 24 hours incubation. How it is done: Compounds were assayed against a murine macrophage (J774) cell line to determine their in vitro potential toxic effect. Cells were cultured in Dulbecco's Modified Eagle Medium (DMEM) supplemented with 10% FBS at 37° C. with 5% CO2. Control cells received DMSO alone at a concentration equal to that in drug-treated cell samples. The cells were incubated with the compounds (in triplicate) in a 96-well plate at 37° C. with 5% CO2 for 24 hours. The assay reagent MTS; 3-(4,5-dimethylthiazol-2-yl)-5-(3-carboxymethoxyphenyl)-2-(4-sulfophenyl)-2H-tetrazolium) (Promega, Madison, Wis., USA) was subsequently added and the plate was incubated for three to four hours. Absorbance readings (at OD490) were recorded using a kinetic microplate reader (Molecular Devices, Sunnyvale, Calif., USA). The quantity of viable cells after treatment with each compound was expressed as a percentage of the viability relative to DMSO-treated control cells (average of triplicate wells±standard deviation). FIG. 5. […] Results are presented as percent viable mammalian cells (measured as average absorbance ratio relative to DMSO). The absorbance values represent an average of a minimum of three samples analyzed for each compound. Error bars represent standard deviation values for the absorbance values.
(In general: Tetrazolium assays rely on reduction of a dye to a coloured formazan, in cell work by metabolically active cells.)

For series [2], the system named is intracellular MRSA USA400 inside murine macrophage (J774) cells. Put plainly: Clearance of intracellular MRSA in infected J774 macrophages. The settings on record: 24 hours, J774 infected with MRSA USA400. It counts as cell-based, Staphylococcus aureus. How it is done: The ability of the compound 148 to reduce the burden of intracellular MRSA was evaluated utilizing previously described methods. Murine macrophage cells (J774) were cultured in Dulbecco's Modified Eagle Medium (DMEM) supplemented with 10% FBS at 37° C. with CO2 (5%). J774 cells were exposed to MRSA USA400 cells at a multiplicity of infection of approximately 10:1. After 1 hour of infection, J774 cells were washed with gentamicin (200 μg/mL) to kill extracellular MRSA. The compounds or vancomycin (at 4×MIC and 8×MIC) were subsequently added to each well (four replicates per test agent). Control cells received DMSO at a concentration equal to that in drug-treated cell samples. After 24 hours-incubation at 37° C. with 5% CO2, the test agents were removed. J774 cells were washed and subsequently lysed using 0.1% Triton-X. The solution was serially diluted in phosphate-buffered saline and transferred to TSA plates in order to determine viable MRSA CFU inside the J774 cells. Plates were incubated at 37° C. for 18-22 hour before counting viable CFU/mL. Statistical significance was assessed with two-way ANOVA, with post hoc Dunnet's multiple comparisons test (P<0.05), utilizing GraphPad Prism 6.0 (GraphPad Software, La Jolla, Calif.).
FIG. 6. Examination of the activity of compounds 148 on the clearance of intracellular MRSA present inside infected murine macrophage (J774) cells. […] Data were analyzed via two-way ANOVA, with post hoc Dunnet's multiple comparisons test (P<0.05), utilizing GraphPad Prism 6.0 (GraphPad Software, La Jolla, Calif.). Asterisks (*) represent significant difference between treatment of J774 cells with compound 148 in comparison to vancomycin.

Series [3] concerns human colorectal adenocarcinoma (Caco-2) cell. In words: In vitro cytotoxicity, MTS assay. It counts as cell-based. The protocol:
Compounds 144, 148, 151, 155, 158, and 187 were assayed (at concentrations of 16, 32, and 64 μg/mL) against a human colorectal adenocarcinoma (Caco-2) cell to determine the potential toxic effect to mammalian cells in vitro. Briefly, cells were cultured in Dulbecco's Modified Eagle Medium (DMEM) supplemented with 10% fetal bovine serum (FBS), non-essential amino acids (1×), penicillin-streptomycin at 37° C. in presence of 5% CO2. Control cells received DMSO alone at a concentration equal to that in drug-treated wells. The cells were incubated with the compounds (in triplicate) in a 96-well plate at 37° C. with 5% CO2 for two hours. This was followed by the subsequent addition of the assay reagent MTS 3-(4,5-dimethylthiazol-2-yl)-5-(3-carboxymethoxyphenyl)-2-(4-sulfophenyl)-2H-tetrazolium) (Promega, Madison, Wis., USA) and the plate was incubated for three to four hours. Absorbance readings (at OD490) were recorded using a kinetic microplate reader (Molecular Devices, Sunnyvale, Calif., USA). The quantity of viable cells after treatment with each compound was expressed as a percentage of the viability of DMSO-treated control cells (average of triplicate wells±standard deviation).
FIG. 3. Analyzing the toxicity of 144, 148, 151, 155, 158, and 187 compounds (tested in triplicates at 16, 32 and 64 μg/mL) against human colorectal cells (Caco-2) using the MTS 3-(4,5-dimethylthiazol-2-yl)-5-(3-carboxymethoxyphenyl)-2-(4-sulfophenyl)-2H-tetrazolium) assay. Results are presented as percent viable cells relative to DMSO (negative control) to determine a baseline measurement for the cytotoxic impact of each compound. The absorbance values represent an average of three samples analyzed for each compound. Error bars represent standard deviation values. The data were analyzed via a two-way ANOVA with post-hoc Dunnett's test for multiple comparisons. An asterisk (*) denotes statistical significance (P<0.05) between results for compounds and DMSO.

The text below walks through data of patent US20210317099A1, “SAFER, POTENT, AND FAST ACTING ANTIMICROBIAL AGENTS” (Purdue Research Foundation, priority 2020, published 2021).

As for `C=C(C(=O)OC)C(c1ccc2ccccc2c1)C(O)c1cccc2ccccc12` (stereo not shown) [Compound 148], the “concentration tolerable to J774 cells” value in series [1] is at most 8 µg/mL. The “reduction of intracellular MRSA” value in series [2] (4 μg/mL) is 0.8 log10; in series [2] (8 μg/mL), “about 2.52 log10”. The “reduction of intracellular MRSA (percent)” value was 84.9% in series [2] (4 μg/mL) and 99.7% in series [2] (8 μg/mL).

`C=C1C(=O)O[C@H](c2cccc3ccccc23)[C@@H]1c1ccc2ccccc2c1` [Compound 155]: the viable cells in series [3] (Caco-2, at 32 μg/mL, relative to DMSO) is given as 100%. Moreover, in series [3] (Caco-2, two hours incubation, MTS), the “non-toxic concentration to Caco-2 cells” value is at most 32 µg/mL.
